Data as given in patent publication US10208012B2, “Compounds for treating inflammatory and hyperproliferative diseases” (Board of Regents, The University of Texas System, priority 2013, dated 2019).
Where two headings read alike, the source gives them in different places. One block for each molecule: values may come before it.

Key:
[1] = system: mantle cell lymphoma cell lines (Mino and Z-138); assay: Thymidine incorporation proliferation assay in mantle cell lymphoma cell lines; type: cell-based
Description: (§1) FIG. 1. Effect of Tumeric Derivatives in MCL cells. Six TMX analogs were screened in two mantle cell lymphoma cell lines (Mino and Z-138). These assays were performed by treating cells with increasing doses of TMX (0-25 μM) and analyzed by thymidine incorporation (proliferation assay).
as §1, with “2.” for “1.”, “Turmerax Compounds” for “Tumeric Derivatives”, “MCLs. 10 additional” for “MCL cells. Six”, “analogs derived from compound #6 (from FIG. 1)” for “analogs”
FIG. 3. Effect of Turmerax Compounds in MCLs. Four compounds from FIG. 2 were selected to analyze at concentrations below 1 μM for cell growth inhibition in vitro.
Malignant lymphoma continues to represent a major health issue in the US and worldwide. Non-Hodgkin lymphomas (NHL) are a common, heterogeneous group of primarily (˜85%) B lymphoid cell neoplasms (NHL-B) arising in the B cell lineage of the human immune (lymphoid) system. NHL-Bs are the fifth most common cancer in the USA (˜65,000 new cases/25,000 deaths expected in 2010). Therefore, there is a great need for novel treatment strategies for this deadly cancer, particularly for relapsed/refractory lymphomas. Relapsed/refractory (r/rDLBCL) DLBCL is one of the most difficult scientific challenges and severe unmet therapeutic needs in clinical oncology today. This is due largely to very drug resistant tumor cells with very poor responses (<20% PR/CR) to current “salvage” therapies. Key pathways (NF-kB, AKT, STAT3), controlling cell growth/survival and chemoresistance in DLBCL have been discovered. Since natural compounds such as turmeric can target multiple pathways with low cellular toxicity, novel compounds with higher potency for cancer cells were sought. Initially, 6 novel turmeric analogues were designed and synthesized using cyclic thioketone and different substituted aromatic aldehydes. […] These compounds were named turmerax (TMX) (1-10), and tested them in the two resistant mantle cell lymphoma cell lines (Mino and Z-138). […] Turmerax compounds 1, 3, 5 and 9 were further analyzed at concentrations below 1 μM for cell growth inhibition in vitro. […] Next, the toxicity of these Turmerax compounds (1, 3, 5 and 9) was evaluated in normal human peripheral blood mononuclear cells (PBMC). […] The effectiveness of Turmerax compounds 1 and 5 in four MCL cell lines were examined, four LBCL cell lines (both ABC and GCB-type) and one follicular lymphoma cell line (CJ) in comparison to the wild type (natural) curcumin compound, to which these compounds bear some structural relatedness. The IC50 for Turmerax cmpds.

MS cells = assay: Sensitivity of doxorubicin-resistant DLBCL cells; type: cell-based
Description: (§2) FIG. 7. TMX-1 Targets NF-kB and Key Signaling Pathways in DLBCL to Overcome Chemoresistance. Top left, DLBCL cells (MS) were transfect with the 6×-NF-kB-luciferase expression vector for 24 hrs. Transfected cells were treated with PBS (control) or Lipo-TMX-1 (100 nM) for 4 hrs. Cell lysates were used to analyzed for luciferase activity that was normalized with b-gal activity. Top right, TMX-1 inhibited NIK and pAKT in NHL-B cells. MS cells were treated with increasing doses of Lipo-TMX-1 (0-500 nM) for 24 hrs. NIK and pAKT protein expressions were determined by Western blotting. Bottom, Doxorubicin resistant cells are sensitive to TMX-1. MS cells are resistant to Dox, but are sensitive to TMX-1. McA DLBCL cells are sensitive to both doxorubicin and TMX-1.

McA DLBCL cells = assay: Sensitivity of doxorubicin-sensitive DLBCL cells; type: cell-based
Description: as §2

[2] = system: normal human peripheral blood mononuclear cells (PBMC); assay: Cytotoxicity in normal PBMC by thymidine incorporation; type: cell-based; settings: minimal toxicity stated for drug concentration below 600 nM
Description: FIG. 4. Effect of Turmerax compounds in normal peripheral blood mononuclear cells (PBMC). Turmeric analogues (1, 3, 5, and 9) were evaluate for cytoxicity in normal human peripheral blood mononuclear cells (PBMC) by thymidine incorporation assays.
Malignant lymphoma continues to represent a major health issue in the US and worldwide. Non-Hodgkin lymphomas (NHL) are a common, heterogeneous group of primarily (˜85%) B lymphoid cell neoplasms (NHL-B) arising in the B cell lineage of the human immune (lymphoid) system. NHL-Bs are the fifth most common cancer in the USA (˜65,000 new cases/25,000 deaths expected in 2010). Therefore, there is a great need for novel treatment strategies for this deadly cancer, particularly for relapsed/refractory lymphomas. Relapsed/refractory (r/rDLBCL) DLBCL is one of the most difficult scientific challenges and severe unmet therapeutic needs in clinical oncology today. This is due largely to very drug resistant tumor cells with very poor responses (<20% PR/CR) to current “salvage” therapies. Key pathways (NF-kB, AKT, STAT3), controlling cell growth/survival and chemoresistance in DLBCL have been discovered. Since natural compounds such as turmeric can target multiple pathways with low cellular toxicity, novel compounds with higher potency for cancer cells were sought. Initially, 6 novel turmeric analogues were designed and synthesized using cyclic thioketone and different substituted aromatic aldehydes. […] These compounds were named turmerax (TMX) (1-10), and tested them in the two resistant mantle cell lymphoma cell lines (Mino and Z-138). […] Turmerax compounds 1, 3, 5 and 9 were further analyzed at concentrations below 1 μM for cell growth inhibition in vitro. […] Next, the toxicity of these Turmerax compounds (1, 3, 5 and 9) was evaluated in normal human peripheral blood mononuclear cells (PBMC). […]

pH2AX = assay: DNA damage marker in LY-10 cells; type: cell-based
Description: (§3) FIGS. 12A-C. TMX-1 induces apoptosis in lymphoma cells. (FIG. 12A) A representative lymphoma cell line (LY10) was treated with TMX-1 in a dose-dependent manner for 24 hrs. Apoptosis was determined by Annexin V assays. (FIG. 12B) TMX-1 activates phospho-H2AX (DNA damage marker) and induces bcl-2 cleaving in lymphoma cells. (FIG. 12C) A representative DLBCL cell line (MS) was transfected with a NF-kB-luciferase reporter for 24 hrs. Cells were treated with TMX-1 as indicated.
(§4) To determine whether TMX-1 can induce apoptosis in lymphoma cells, we treated a diffuse large cell lymphoma (DLBCL) cell line (LY-10) with TMX-1 in a dose-dependent manner for 24 hrs. Control and treated cells were analyzed for apoptosis using Annexin V assays. […] Next, we test whether TMX-1 can induces DNA damage in LY-10 cells. […] The inventors also examined whether TMX-1 can inhibit NF-kB activity in lymphoma cells. For these studies, a DLBCL cell line (MS) was transfected with a NF-kB luciferase reporter for 24 hrs, at which time cells were treated with TMX-1 in a dose- and time-dependent manner. […] There are many NF-kB inhibitors commercially available that have been tested in many cancer systems, but none has ever reached the clinic to cancer treatment. The reason for this is typically because these agents usually target upstream of NF-kB signaling pathways, leading to many unwanted side effects.

[3] = system: melanoma, gastric, pancreatic, and glioma cancer cell lines; assay: MTT cell growth inhibition in NF-kB-associated solid tumor cancer cell lines; type: cell-based
Description: FIG. 11. Effect of TMX-1 in NF-kB-Associated Cancers. Representative cancer cell lines for melanoma, gastric, pancreatic, and glioma were used to analyzed for cell growth inhibition activity of TMX-1 using MTT assays.
(§5) These formulations may be used in further clinical trials.

NIK = assay: Western blotting of NIK in MS cells; type: cell-based; settings: Lipo-TMX-1 0-500 nM, 24 hrs
Description: as §2

Bio-availability in vivo = assay: Bio-availability in vivo
Description: as §5

[4] = system: human DLBCL cell lines (Dox-sensitive and Dox-resistant); assay: 72-hr proliferation assays in doxorubicin-sensitive and -resistant DLBCL cell lines; type: cell-based
Description: FIGS. 13A-B. TMX-1 inhibits DLBCL cell proliferation. (FIG. 13A) 24 representative DLBCL cell lines were treated with TMX-1 in dose-dependent manner and analyzed by thymidine incorporation assays for cell growth inhibition. (FIG. 13B) Effect of TMX-1 in doxorubicin highly sensitive and highly resistant DLBCL cell lines (Pham et al., 2011).
DLBCL are currently initially treated fairly successfully with R-CHOP frontline chemotherapy (˜70-80% initial remission rate), but relapsed/refractory DLBCL occurs frequently (˜40% within 2-3 yrs), with very poor salvage therapy options (˜20% PR/CR). A unique repertoire of human DLBCL cell lines were developed (Ford et al., 1990; Pham et al., 2010) that can be classified into two subgroups, doxorubicin (a key component in CHOP)-sensitive and doxorubicin-resistant. These cell lines were screened against TMX-1 in a dose-dependent manner using 72-hr proliferation assays (FIG. 13A).

bcl-2 = bcl-2 cleaving in LY-10 cells; type: cell-based
Description: as §3, §4

[5] = Water solubility, suspended in water for 24 hrs; type: physicochemical
Description: FIG. 8. Water Solubility of Lipo-Turmerax-1 Compound. Liposomal TMX-1 and TMX-1 compounds were suspended in water for 24 hrs.
as §5

LY10 cells = assay: Annexin V apoptosis assay; type: cell-based; settings: 500 nM drug concentration, 24 hrs
Description: as §3, §4

DLBCL cell line (TJ) = assay: Combination cell proliferation assays in DLBCL cell line (TJ); type: cell-based; settings: TJ cells
Description: FIGS. 14A-B. A representative DLBCL cell line (TJ) was treated with TMX-1 in a dose-dependent manner alone or in combination with Ibrutinib (IB) and carfilzomib (CFZ) and cell proliferation assays were analyzed.
Recent molecularly targeted therapy, as opposed to classic chemotherapy, has improved the treatment of lymphoid malignancies. At the forefront of clinical development are ibrutinib, an inhibitor of Bruton's tyrosine kinase (btk) and carfilzomib (CFZ), a second-generation proteasome inhibitor.

pAKT = assay: Western blotting of pAKT in MS cells; type: cell-based; settings: Lipo-TMX-1 0-500 nM, 24 hrs
Description: as §2

[6] = Mino and Z-138, doses 0-25 μM, thymidine incorporation, read-out: IC50, cell growth inhibition
[7] = further analyzed at concentrations below 1 μM, read-out: IC50, cell growth inhibition

IC50 [1, 6]: > 25 µM
Compound: COc1ccc(/C=C2\CSC/C(=C\c3ccc(OC)c(C)c3C)C2=O)c(C)c1C [Turmerax 7, 3,5-bis[(3,4-dimethyl-4-methoxyphenyl)methylene]-tetrahydrothiopyran-4-one]

IC50 [1, 6]: 3 to 10 µM
Compound: O=C1/C(=C/c2ccc(Cl)c(Cl)c2)CSC/C1=C\c1ccc(Cl)c(Cl)c1 [Turmerax 2, 3,5-bis[(3,4-dichlorophenyl)methylene]-tetrahydrothiopyran-4-one]

IC50 [1, 6]: 3 to 10 µM
Compound: O=C1/C(=C/c2ccc(Br)cc2)CSC/C1=C\c1ccc(Br)cc1 [Turmerax 10, 3,5-bis[(4-bromophenyl)methylene]-tetrahydrothiopyran-4-one]

Compound: COc1cccc2c1C(=O)c1c(O)c3c(c(O)c1C2=O)C[C@@](O)(C(=O)CO)C[C@@H]3O[C@H]1C[C@H](N)[C@H](O)[C@H](C)O1 [doxorubicin, reference compound]
sensitivity of MS cells (MS cells): resistant | sensitivity of McA DLBCL cells (McA DLBCL cells): sensitive

Compound: N#Cc1ccc(/C=C2\CSC/C(=C\c3ccc(C#N)cc3)C2=O)cc1 [Turmerax 9]
IC50 [1, 6]: < 1 µM | IC50 [1, 7]: 0.2 to 0.8 µM | toxicity to PBMC [2]: some toxicity

Compound: O=C1/C(=C/c2ccc([N+](=O)[O-])c(O)c2)CSC/C1=C\c1ccc([N+](=O)[O-])c(O)c1 [Turmerax 3, 3,5-bis[(3-hydroxy-4-nitrophenyl)methylene]-tetrahydrothiopyran-4-one]
IC50 ([1]; read-out: IC50, cell growth inhibition, Mino and Z-138, doses 0-25 μM, thymidine incorporation): < 1 µM | IC50 ([1]; read-out: IC50, cell growth inhibition, further analyzed at concentrations below 1 μM): 0.2 to 0.8 µM | toxicity to PBMC [2]: only minimal cell toxicity

Compound: N#Cc1cccc(/C=C2\CSC/C(=C\c3cccc(C#N)c3)C2=O)c1 [Turmerax 1, 3,5-bis[(3-cyanophenyl)methylene]-tetrahydrothiopyran-4-one]
pH2AX (DNA damage marker) (pH2AX): significantly increased | inhibition of solid tumor cancer cells [3]: highly effective | NIK protein expression (NIK): inhibited | sensitivity of MS cells (MS cells): sensitive | bio-availability (Bio-availability in vivo): reduced bio-availability | activity in Dox-sensitive vs. Dox-resistant DLBCL cell lines [4]: equivalent | bcl-2 anti-apoptotic protein (bcl-2): cleaved | IC50 [1, 6]: < 1 µM | IC50 [1, 7]: 0.1 to 0.2 µM | precipitation in water [5]: shows precipitation | toxicity to PBMC [2]: only minimal cell toxicity | apoptosis induced (LY10 cells): up to 80% | effectiveness of combination with ibrutinib compared with combination with CFZ (DLBCL cell line (TJ)): more effective than TMX-1 in combination with CFZ | interaction with ibrutinib in inhibiting lymphoma cell growth (DLBCL cell line (TJ)): highly synergistic | pAKT protein expression (pAKT): inhibited | sensitivity of McA DLBCL cells (McA DLBCL cells): sensitive

Compound: O=C1/C(=C/c2ccc(Cl)c([N+](=O)[O-])c2)CSC/C1=C\c1ccc(Cl)c([N+](=O)[O-])c1 [Turmerax 5, 3,5-bis[(3-nitro-4-chlorophenyl)methylene]-tetrahydrothiopyran-4-one]
IC50 [1, 6]: < 1 µM | IC50 [1, 7]: 0.1 to 0.2 µM

IC50 [1, 6]: > 25 µM
Compound: COc1ccc(/C=C2\CSC/C(=C\c3ccc(OC)c(OC)c3OC)C2=O)c(OC)c1OC [Turmerax 4, 3,5-bis[(2,3,4-trimethoxyphenyl)methylene]-tetrahydrothiopyran-4-one]

IC50 [1, 6]: 3 to 10 µM
Compound: CCOC(=O)c1ccc(/C=C2\CSC/C(=C\c3ccc(C(=O)OCC)cc3)C2=O)cc1 [Turmerax 6, 3,5-bis[(4-ethoxycarbonylphenyl)methylene]-tetrahydrothiopyran-4-one]

IC50 [1, 6]: > 25 µM
Compound: O=C1/C(=C/c2c(F)ccc(Cl)c2F)CSC/C1=C\c1c(F)ccc(Cl)c1F [Turmerax 8, 3,5-bis[(2,6-difluoro-3-chlorophenyl)methylene]-tetrahydrothiopyran-4-one]
